Patent publication US20260242360A1, “Novel Compound, and Pharmaceutical Composition for Prevention or Treatment of Cancer or Tumors Comprising Same” (Daewoong Pharmaceutical Co., Ltd., priority 2023, published 2026)

What was measured:
Type in all cases: cell-based
[1] = test system: transcription factor TEAD; assay: Activity inhibition test of transcription factor TEAD (ONE-Glo luciferase assay, Hippo Pathway TEAD reporter-MCF7 cell line); details: Homo sapiens; TEAD Reporter-MCF7 cells, 24 hours treatment, luciferase luminescence
Protocol: The transcription factor TEAD activity of the compounds prepared in Examples was measured by the ONE-Glo™ Luciferase assay (Promega, Catalog #E6110) method using the Hippo Pathway TEAD reporter-MCF7 recombinant cell line (BPS Bioscience, Catalog #60618).
Specifically, the TEAD Reporter-MCF7 cell line contains the firefly luciferase gene whose expression is regulated under the control of TEAD response elements in the MCF7, which is a human breast cancer cell line. In the cell line, a non-phosphorylated YAP/TAZ exists in the nucleus in a non-stressed condition, which continuously induces expression of the luciferase reporter.
TEAD Reporter-MCF7 cells were prepared in 100 μL of cell culture medium (MEM medium, 10% FBS, 1% P/S, 400 μg/mL Geneticin, 1% […], 1 mM NA pyruvate, 10 μg/mL Insulin) in a white clear bottom 96-well microplate. The prepared plate was incubated in a 5% CO2 incubator at 37° C. for 24 hours, and then the previously prepared compounds of Examples were finally treated at concentrations of 0.0005, 0.005, 0.05, 0.5 and 5 μM, which were repeated three times for all treatment solutions. The plates treated with the compounds of Examples were incubated in a 5% CO2 incubator at 37° C. for 24 hours. 100 μL/well of the substrate aqueous solution containing luciferin was added to a white clear-bottom 96 well microplate, thereby initiating an enzyme reaction. The reaction was performed at room temperature for 5 minutes, and the luminescence (integration time 1000 ms) was measured using a Flexstation3 multi-mode microplate reader. In accordance with the instructions for the ONE-Glo™ Luciferase Assay, the luciferase enzyme activity, which represents the activity of the transcription factor TEAD, was measured by a chemiluminescence method, and the inhibitory activity of the compound according to the present disclosure was calculated. The results of each compound were analyzed using Microsoft Excel, and the IC50 values were calculated by GraphPad Prism software.

NCI-H226 cells = assay: Cell growth inhibition test (CellTiter-Glo), NCI-H226; details: Homo sapiens, NCI-H226 cell line
Protocol: (§1) The cell growth for the compounds prepared in Examples was measured by CellTiter-Glo® Luminescednt Cell Viability (Promega, Catalog #G7571) method using NCI-H226 (addexbio), NCI-H28 (Korea Cell Line Bank) cell lines. This evaluation method is a method in which when luciferase enzyme is activated by ATP flowing out from living cells, it reacts with a luciferin substrate, and the enzyme activity at this time is measured to confirm cell viability.
(§2) Specifically, NCI-H226, and NCI-H28 cells were prepared in 100 μL of cell culture medium (RPMI medium, 10% FBS, 1% P/S, 4.5 g/L D-Glucose, 2.383 g/L HEPES Buffer, L-Glutamine, 1.5 g/L Sodium Bicarbonate, 110 mg/L Sodium pyruvate) in a white clear bottom 96-well microplate. The prepared plate was incubated in a 5% CO2 incubator at 37° C. for 24 hours, and then the previously prepared compounds of Examples were finally treated at concentrations of 0.0005, 0.005, 0.05, 0.5 and 5 μM, which was repeated three times for all treatment solutions.
(§3) The plates treated with the compounds of Examples were incubated in a 5% CO2 incubator at 37° C. 100 μL/well of the substrate aqueous solution containing luciferin was added to a white clear-bottom 96 well microplate, thereby initiating an enzyme reaction. The reaction was performed at room temperature in the dark for 10 minutes, and the luminescence was measured using a Flexstation3 multi-mode microplate reader. In accordance with the instructions for the CellTiter-Glo™ Luminescednt Cell Viability, the luciferase enzyme activity, which represents the amount of ATP, was measured by a chemiluminescence method, and the inhibitory activity of the compounds according to the present disclosure was calculated. The results of each compound were analyzed using Microsoft Excel, and the IC50 values were calculated using GraphPad Prism software.

NCI-H28 cells = assay: Cell growth inhibition test (CellTiter-Glo), NCI-H28; details: Homo sapiens, NCI-H28 cell line
Protocol: as §1, §2, §3

C=CC(=O)Nc1cc(-c2cn(C)cn2)c2[nH]c(C3=CCCCC3)cc2c1 [Example 13, N-(2-cyclohexenyl-7-(1-methyl-1H-imidazol-4-yl)-1H-indol-5-yl)acrylamide]
IC50 [1]: 0.046 µM
IC50 (NCI-H226 cells): 0.0223 µM
IC50 (NCI-H28 cells): 3.5 µM

C=CC(=O)Nc1cc(-c2ccn(C)n2)c2[nH]c(-c3ccc(F)cc3F)cc2c1 [Example 33, N-(2-(2,4-difluorophenyl)-7-(1-methyl-1H-pyrazol-3-yl)-1H-indol-5-yl)acrylamide]
IC50 [1]: 0.051 µM
IC50 (NCI-H226 cells): 0.0243 µM
IC50 (NCI-H28 cells): 4.91 µM

C=CC(=O)Nc1cc(-c2cn(C)cn2)c2[nH]c(-c3cc(F)c(Cl)c(F)c3)cc2c1 [Example 46, N-(2-(4-chloro-3,5-difluorophenyl)-7-(1-methyl-1H-imidazol-4-yl)-1H-indol-5-yl)acrylamide]
IC50 [1]: 0.09 µM
IC50 (NCI-H226 cells): 0.079 µM
IC50 (NCI-H28 cells): 1.36 µM

Cn1cnc(-c2cc(NS(C)(=O)=O)cc3cc(-c4ccc(Cl)cc4)[nH]c23)c1 [Example 21, N-(2-(4-chlorophenyl)-7-(1-methyl-1H-imidazol-4-yl)-1H-indol-5-yl)methanesulfonamide]
IC50 [1]: 0.236 µM
IC50 (NCI-H226 cells): > 5 µM
IC50 (NCI-H28 cells): 2.22 µM

C=CC(=O)Nc1cc(-c2cn(C)cn2)c2[nH]c(-c3ccc(F)c(C)c3)cc2c1 [Example 14, N-(2-(4-fluoro-3-methylphenyl)-7-(1-methyl-1H-imidazol-4-yl)-1H-indol-5-yl)acrylamide]
IC50 [1]: 0.049 µM
IC50 (NCI-H226 cells): 0.0251 µM
IC50 (NCI-H28 cells): 2.3 µM

C=CC(=O)Nc1cc(-c2cn(C)cn2)c2[nH]c(-c3ccc(C(F)(F)F)cc3)cc2c1 [Example 2, N-(7-(1-methyl-1H-imidazol-4-yl)-2-(4-(trifluoromethyl)phenyl)-1H-indol-5-yl)acrylamide]
IC50 [1]: 0.039 µM
IC50 (NCI-H226 cells): 0.065 µM
IC50 (NCI-H28 cells): 4.14 µM

C=CC(=O)Nc1cc(-c2ccn(C)n2)c2[nH]c(-c3ccc(Cl)cc3)cc2c1 [Example 28, N-(2-(4-chlorophenyl)-7-(1-methyl-1H-pyrazol-3-yl)-1H-indol-5-yl)acrylamide]
IC50 [1]: 0.015 µM
IC50 (NCI-H226 cells): 0.0084 µM
IC50 (NCI-H28 cells): 2.3 µM

Cn1cnc(-c2cc(C(=O)O)cc3cc(-c4ccc(F)c(F)c4)[nH]c23)c1 [Example 43, 2-(3,4-difluorophenyl)-7-(1-methyl-1H-imidazol-4-yl)-1H-indole-5-carboxylic acid]
IC50 [1]: 0.054 µM
IC50 (NCI-H226 cells): 0.0078 µM
IC50 (NCI-H28 cells): > 5 µM

Cn1cnc(-c2cc(C(=O)O)cc3cc(-c4ccc(F)cc4)[nH]c23)c1 [Example 35, 2-(4-fluorophenyl)-7-(1-methyl-1H-imidazol-4-yl)-1H-indole-5-carboxylic acid]
IC50 [1]: 0.1 µM
IC50 (NCI-H226 cells): 0.137 µM
IC50 (NCI-H28 cells): > 5 µM

Cn1cnc(-c2cc(NS(C)(=O)=O)cc3cc(-c4cccc(C(F)(F)F)c4)[nH]c23)c1 [Example 19, N-(7-(1-methyl-1H-imidazol-4-yl)-2-(3-(trifluoromethyl)phenyl)-1H-indol-5-yl)methanesulfonamide]
IC50 [1]: 0.19 µM
IC50 (NCI-H226 cells): 0.21 µM
IC50 (NCI-H28 cells): 0.438 µM

Cn1cnc(-c2cc(C(=O)O)cc3cc(-c4ccc(Cl)cc4)[nH]c23)c1 [Example 37, 2-(4-chlorophenyl)-7-(1-methyl-1H-imidazol-4-yl)-1H-indole-5-carboxylic acid]
IC50 [1]: 0.026 µM
IC50 (NCI-H226 cells): 0.135 µM
IC50 (NCI-H28 cells): 0.759 µM

C=CC(=O)Nc1cc(-c2ccccn2)c2[nH]c(-c3ccc(F)cc3)cc2c1 [Example 31, N-(2-(4-fluorophenyl)-7-(pyridin-2-yl)-1H-indol-5-yl)acrylamide]
IC50 [1]: 0.03 µM
IC50 (NCI-H226 cells): 0.012 µM
IC50 (NCI-H28 cells): 1.77 µM

C=CC(=O)Nc1cc(-c2ccn(C)n2)c2[nH]c(-c3ccc(F)cc3)cc2c1 [Example 32, N-(2-(4-fluorophenyl)-7-(1-methyl-1H-pyrazol-3-yl)-1H-indol-5-yl)acrylamide]
IC50 [1]: 0.023 µM
IC50 (NCI-H226 cells): 0.0076 µM
IC50 (NCI-H28 cells): 1.36 µM

C=CC(=O)Nc1cc(-c2cn(C)cn2)c2[nH]c(-c3cccc(Cl)c3)cc2c1 [Example 10, N-(2-(3-chlorophenyl)-7-(1-methyl-1H-imidazol-4-yl)-1H-indol-5-yl)acrylamide]
IC50 [1]: 0.06 µM
IC50 (NCI-H226 cells): 0.02 µM
IC50 (NCI-H28 cells): 2.47 µM

C=CC(=O)Nc1cc(-c2cn(CC)cn2)c2[nH]c(-c3ccc(F)cc3)cc2c1 [Example 51, N-(7-(1-ethyl-1H-imidazol-4-yl)-2-(4-fluorophenyl)-1H-indol-5-yl)acrylamide]
IC50 [1]: 0.048 µM
IC50 (NCI-H226 cells): 0.0076 µM
IC50 (NCI-H28 cells): 2.54 µM

C=CC(=O)Nc1cc(-c2cn(C)cn2)c2[nH]c(-c3ccccc3)cc2c1 [Example 4, N-(7-(1-methyl-1H-imidazol-4-yl)-2-phenyl-1H-indol-5-yl)acrylamide]
IC50 [1]: 0.03 µM
IC50 (NCI-H226 cells): 0.01 µM
IC50 (NCI-H28 cells): 4.4 µM

C=CC(=O)Nc1cc(-c2cn(CC)cn2)c2[nH]c(-c3cc(F)c(F)c(F)c3)cc2c1 [Example 50, N-(7-(1-ethyl-1H-imidazol-4-yl)-2-(3,4,5-trifluorophenyl)-1H-indol-5-yl)acrylamide]
IC50 [1]: 0.027 µM
IC50 (NCI-H226 cells): 0.0154 µM
IC50 (NCI-H28 cells): > 5 µM

Cn1cnc(-c2cc(C(=O)O)cc3cc(-c4ccc(Cl)c(F)c4)[nH]c23)c1 [Example 39, 2-(4-chloro-3-fluorophenyl)-7-(1-methyl-1H-imidazol-4-yl)-1H-indole-5-carboxylic acid]
IC50 [1]: 0.036 µM
IC50 (NCI-H226 cells): 0.0219 µM
IC50 (NCI-H28 cells): > 5 µM

C=CC(=O)Nc1cc(-c2cn(C)cn2)c2[nH]c(-c3ccc(Cl)cc3F)cc2c1 [Example 12, N-(2-(4-chloro-2-fluorophenyl)-7-(1-methyl-1H-imidazol-4-yl)-1H-indol-5-yl)acrylamide]
IC50 [1]: 0.079 µM
IC50 (NCI-H226 cells): 0.0225 µM
IC50 (NCI-H28 cells): 2.8 µM

C=CC(=O)Nc1cc(-c2cn(C)cn2)c2[nH]c(-c3ccc(F)cc3F)cc2c1 [Example 5, N-(2-(2,4-difluorophenyl)-7-(1-methyl-1H-imidazol-4-yl)-1H-indol-5-yl)acrylamide]
IC50 [1]: 0.0064 µM
IC50 (NCI-H226 cells): 0.0042 µM
IC50 (NCI-H28 cells): > 5 µM

C=CC(=O)Nc1cc(-c2cn(C)cn2)c2[nH]c(-c3ccc(Cl)cc3)cc2c1 [Example 1, N-(2-(4-chlorophenyl)-7-(1-methyl-1H-imidazol-4-yl)-1H-indol-5-yl)acrylamide]
IC50 [1]: 0.0094 µM
IC50 (NCI-H226 cells): 0.021 µM
IC50 (NCI-H28 cells): > 5 µM

C=CC(=O)Nc1cc(-c2cn(C)cn2)c2[nH]c(-c3cc(F)c(F)c(F)c3)cc2c1 [Example 6, N-(7-(1-methyl-1H-imidazol-4-yl)-2-(3,4,5-trifluorophenyl)-1H-indol-5-yl)acrylamide]
IC50 [1]: 0.0059 µM
IC50 (NCI-H226 cells): 0.0044 µM
IC50 (NCI-H28 cells): 4 µM

C=CC(=O)Nc1cc(-c2cn(C)cn2)c2[nH]c(-c3ccc(F)cc3)cc2c1 [Example 3, N-(2-(4-fluorophenyl)-7-(1-methyl-1H-imidazol-4-yl)-1H-indol-5-yl)acrylamide]
IC50 [1]: 0.0035 µM
IC50 (NCI-H226 cells): 0.0025 µM
IC50 (NCI-H28 cells): 1.53 µM

C=CC(=O)Nc1cc(-c2ccccn2)c2[nH]c(-c3ccc(Cl)c(Cl)c3)cc2c1 [Example 30, N-(2-(3,4-dichlorophenyl)-7-(pyridin-2-yl)-1H-indol-5-yl)acrylamide]
IC50 [1]: 0.126 µM
IC50 (NCI-H226 cells): 0.339 µM
IC50 (NCI-H28 cells): 0.553 µM

C=CC(=O)Nc1cc(-c2cn(C)cn2)c2[nH]c(-c3ccc(F)c(F)c3)cc2c1 [Example 9, N-(2-(3,4-difluorophenyl)-7-(1-methyl-1H-imidazol-4-yl)-1H-indol-5-yl)acrylamide]
IC50 [1]: 0.02 µM
IC50 (NCI-H226 cells): 0.0053 µM
IC50 (NCI-H28 cells): 2.95 µM
